Data published in ChEMBL document CHEMBL3045600, “Synthesis and Fungicidal Activities of Phenoxyphenyl Alkoxyiminoacetamide Derivatives” (J Pestic Sci, 1998).

Key:
Assay type in all cases: functional
Pyricularia oryzae [1] = experiment: Fungicidal activity against Magnaporthe oryzae assessed as rice blast disease control at 0.16 ppm submerged application measured after 7 days
Thanatephorus cucumeris [2] = experiment: Fungicidal activity against Thanatephorus cucumeris assessed as rice sheath blight disease control at 2 ppm foliar application for 24 hr before inoculation at 26 +- 2 measured after 5 days by preventive manner
Pyricularia oryzae [3] = experiment: Fungicidal activity against Magnaporthe oryzae assessed as rice blast disease control at 10 ppm submerged application measured after 7 days
Pyricularia oryzae [4] = experiment: Fungicidal activity against Magnaporthe oryzae assessed as rice blast disease control at 2.5 ppm submerged application measured after 7 days
Botrytis cinerea [5] = experiment: Fungicidal activity against Botryotinia fuckeliana assessed as cucumber gray mold disease control at 125 ppm foliar application 24 hr after inoculation at 22 +/- 2 degC measured after 3 days by curative manner
Botrytis cinerea [6] = experiment: Fungicidal activity against Botryotinia fuckeliana assessed as cucumber gray mold disease control at 31.3 ppm foliar application 24 hr after inoculation at 22 +/- 2 degC measured after 3 days by curative manner
Podosphaera fuliginea [7] = experiment: Fungicidal activity against Podosphaera fuliginea assessed as cucumber powdery mildew control under greenhouse at 7.8 ppm foliar application 24 hr before inoculation on upper surface of leaf at 23 +/- 2 degC by preventive manner
[8] = tested on: Pseudoperonospora cubensis; experiment: Fungicidal activity against Pseudoperonospora cubensis assessed as cucumber downy mildew disease control at 31.3 ppm foliar application 24 hr before inoculation on upper surface of leaf by preventive manner
Thanatephorus cucumeris [9] = experiment: Fungicidal activity against Thanatephorus cucumeris assessed as rice sheath blight disease control at 125 ppm foliar application for 24 hr before inoculation at 26 +- 2 measured after 5 days by preventive manner
Botrytis cinerea [10] = experiment: Fungicidal activity against Botryotinia fuckeliana assessed as cucumber gray mold disease control at 7.8 ppm foliar application 24 hr after inoculation at 22 +/- 2 degC measured after 3 days by curative manner
Podosphaera fuliginea [11] = experiment: Fungicidal activity against Podosphaera fuliginea assessed as cucumber powdery mildew control under greenhouse at 7.8 ppm foliar application 24 hr after inoculation on upper surface of leaf at 23 +/- 2 degC by curative manner
Podosphaera fuliginea [12] = experiment: Fungicidal activity against Podosphaera fuliginea assessed as cucumber powdery mildew control under greenhouse at 2 ppm foliar application 24 hr after inoculation on upper surface of leaf at 23 +/- 2 degC by curative manner
Botrytis cinerea [13] = experiment: Fungicidal activity against Botryotinia fuckeliana assessed as cucumber gray mold disease control at 2 ppm foliar application 24 hr after inoculation at 22 +/- 2 degC measured after 3 days by curative manner
Podosphaera fuliginea [14] = experiment: Fungicidal activity against Podosphaera fuliginea assessed as cucumber powdery mildew control under greenhouse at 125 ppm foliar application 24 hr before inoculation on upper surface of leaf at 23 +/- 2 degC by preventive manner
[15] = tested on: Pseudoperonospora cubensis; experiment: Fungicidal activity against Pseudoperonospora cubensis assessed as cucumber downy mildew disease control at 125 ppm foliar application 24 hr before inoculation on upper surface of leaf by preventive manner
[16] = tested on: Pseudoperonospora cubensis; experiment: Fungicidal activity against Pseudoperonospora cubensis assessed as cucumber downy mildew disease control at 7.8 ppm foliar application 24 hr before inoculation on upper surface of leaf by preventive manner
Podosphaera fuliginea [17] = experiment: Fungicidal activity against Podosphaera fuliginea assessed as cucumber powdery mildew control under greenhouse at 31.3 ppm foliar application 24 hr after inoculation on upper surface of leaf at 23 +/- 2 degC by curative manner
Thanatephorus cucumeris [18] = experiment: Fungicidal activity against Thanatephorus cucumeris assessed as rice sheath blight disease control at 7.8 ppm foliar application for 24 hr before inoculation at 26 +- 2 measured after 5 days by preventive manner
Podosphaera fuliginea [19] = experiment: Fungicidal activity against Podosphaera fuliginea assessed as cucumber powdery mildew control under greenhouse at 2 ppm foliar application 24 hr before inoculation on upper surface of leaf at 23 +/- 2 degC by preventive manner
Podosphaera fuliginea [20] = experiment: Fungicidal activity against Podosphaera fuliginea assessed as cucumber powdery mildew control under greenhouse at 31.3 ppm foliar application 24 hr before inoculation on upper surface of leaf at 23 +/- 2 degC by preventive manner
Podosphaera fuliginea [21] = experiment: Fungicidal activity against Podosphaera fuliginea assessed as cucumber powdery mildew control under greenhouse at 125 ppm foliar application 24 hr after inoculation on upper surface of leaf at 23 +/- 2 degC by curative manner
Thanatephorus cucumeris [22] = experiment: Fungicidal activity against Thanatephorus cucumeris assessed as rice sheath blight disease control at 31.3 ppm foliar application for 24 hr before inoculation at 26 +- 2 measured after 5 days by preventive manner
Pyricularia oryzae [23] = experiment: Fungicidal activity against Magnaporthe oryzae assessed as rice blast disease control at 0.63 ppm submerged application measured after 7 days
[24] = tested on: Pseudoperonospora cubensis; experiment: Fungicidal activity against Pseudoperonospora cubensis assessed as cucumber downy mildew disease control at 2 ppm foliar application 24 hr before inoculation on upper surface of leaf by preventive manner

SMILES | Activity (Pyricularia oryzae [1]) [%] | Activity (Thanatephorus cucumeris [2]) [%] | Activity (Pyricularia oryzae [3]) [%] | Activity (Pyricularia oryzae [4]) [%] | Activity (Podosphaera fuliginea [7]) [%] | Activity [8] [%] | Activity (Thanatephorus cucumeris [9]) [%] | Activity (Podosphaera fuliginea [11]) [%] | Activity (Podosphaera fuliginea [12]) [%] | Activity (Podosphaera fuliginea [14]) [%] | Activity [15] [%] | Activity [16] [%] | Activity (Podosphaera fuliginea [17]) [%] | Activity (Thanatephorus cucumeris [18]) [%] | Activity (Podosphaera fuliginea [19]) [%] | Activity (Podosphaera fuliginea [20]) [%] | Activity (Podosphaera fuliginea [21]) [%] | Activity (Thanatephorus cucumeris [22]) [%] | Activity (Pyricularia oryzae [23]) [%] | Activity [24] [%] | other results
CNC(=O)/C(=N/OC)c1ccccc1Oc1ccccc1C | 50 | <70 | 50 | 50 | 70 | <70 | <70 | 50 | 50 | 70 | <70 | <70 | 50 | <70 | 70 | 70 | 50 | <70 | 50 | <70 | Activity (Botrytis cinerea [5]): 50%; Activity (Botrytis cinerea [6]): 50%; Activity (Botrytis cinerea [10]): 50%; Activity (Botrytis cinerea [13]): 50%
CNC(=O)/C(=N/OC)c1ccccc1Oc1ccc([Si](C)(C)C)cc1 | <50 | <70 | <50 | <50 | 70 | <70 | <70 | 50 | 50 | 70 | <70 | <70 | 50 | <70 | 70 | 70 | 50 | <70 | <50 | <70 | Activity (Botrytis cinerea [5]): <50%; Activity (Botrytis cinerea [6]): <50%; Activity (Botrytis cinerea [10]): <50%; Activity (Botrytis cinerea [13]): <50%
CNC(=O)/C(=N/OC)c1ccccc1Oc1cccc(OCC#N)c1 | <50 | <70 | <50 | <50 | 70 | <70 | <70 | 50 | 50 | 70 | <70 | <70 | 50 | <70 | 70 | 70 | 50 | <70 | <50 | <70 | –
CNC(=O)/C(=N/OC)c1ccccc1Oc1ccc(C(C)C)cc1C(C)C | 50 | 70 | 50 | 50 | 70 | <70 | 70 | 50 | 50 | 70 | <70 | <70 | 50 | 70 | 70 | 70 | 50 | 70 | 50 | <70 | –
CNC(=O)/C(=N/OC)c1ccccc1Oc1ccc(C(C)C)cc1 | 50 | 70 | 50 | 50 | 70 | 70 | 70 | 50 | 50 | 70 | 70 | 70 | 50 | 70 | 70 | 70 | 50 | 70 | 50 | 70 | Activity (Botrytis cinerea [5]): 50%; Activity (Botrytis cinerea [6]): 50%; Activity (Botrytis cinerea [10]): 50%; Activity (Botrytis cinerea [13]): 50%
CNC(=O)/C(=N/OC)c1ccccc1Oc1cccc(O)c1 | 50 | 70 | 50 | 50 | <70 | <70 | 70 | – | – | <70 | <70 | <70 | – | 70 | <70 | <70 | – | 70 | 50 | <70 | –
CNC(=O)/C(=N/OC)c1ccccc1Oc1ccc(Oc2ccccc2)cc1 | 50 | 70 | 50 | 50 | 70 | <70 | 70 | 50 | 50 | 70 | <70 | <70 | 50 | 70 | 70 | 70 | 50 | 70 | 50 | <70 | –
CNC(=O)/C(=N/OC)c1c(OC)cccc1Oc1ccccc1 | – | <70 | – | – | <70 | <70 | <70 | – | – | <70 | <70 | <70 | – | <70 | <70 | <70 | – | <70 | – | <70 | –
CNC(=O)/C(=N/OC)c1cc(OC)ccc1Oc1ccccc1 | – | 70 | – | – | 70 | 70 | 70 | – | – | 70 | 70 | 70 | – | 70 | 70 | 70 | – | 70 | – | 70 | –
CNC(=O)/C(=N/OC)c1ccc(C)cc1Oc1ccccc1 | – | 70 | – | – | 70 | 70 | 70 | – | – | 70 | 70 | 70 | – | 70 | 70 | 70 | – | 70 | – | 70 | –
CNC(=O)/C(=N/OC)c1ccccc1/C=C/c1ccccc1 | – | <70 | – | – | 70 | 70 | <70 | – | – | 70 | 70 | 70 | – | <70 | 70 | 70 | – | <70 | – | 70 | –
CNC(=O)/C(=N/OC)c1ccccc1OCc1ccccc1 | – | 70 | – | – | 70 | 70 | 70 | – | – | 70 | 70 | 70 | – | 70 | 70 | 70 | – | 70 | – | 70 | –
CNC(=O)/C(=N/OC)c1ccccc1COc1ccccc1 | – | <70 | – | – | 70 | <70 | <70 | – | – | 70 | <70 | <70 | – | <70 | 70 | 70 | – | <70 | – | <70 | –
